Measured values from PubChem BioAssay AID2060612 (Molecular Pharmacology Branch, DTP, NCI, 2025).

System: 565232-114-T-J1-PDC complex spheroid viability
Assay: Anticancer human tumor 565232-114-T-J1-PDC patient-derived bladder carcinoma cell line growth inhibition [CLK]
Conditions: for IC50: curve of first compound; for viability, T/C: stronger effect = lower value
In short: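 Multi-cell-type spheroids combined patient-derived tumor cells with HUVEC endothelial cells and human mesenchymal stem cells. Paired agents were dosed in half-log steps down from about clinical Cmax, or from 10 microM where Cmax was unknown.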

[1] = second compound 0.0316 µM, first compound 0.0316 µM
[2] = second compound 0.0316 µM, first compound 0.1 µM
[3] = second compound 0.0316 µM, first compound 0.316 µM
[4] = second compound 0.0316 µM, first compound 1 µM
[5] = second compound 0.0316 µM, first compound 3.16 µM
[6] = second compound 0.0316 µM, first compound 10 µM
[7] = second compound 0.1 µM, first compound 0.0316 µM
[8] = second compound 0.1 µM, first compound 0.1 µM
[9] = second compound 0.1 µM, first compound 0.316 µM
[10] = second compound 0.1 µM, first compound 1 µM
[11] = second compound 0.1 µM, first compound 3.16 µM
[12] = second compound 0.1 µM, first compound 10 µM
[13] = second compound 0.316 µM, first compound 0.0316 µM
[14] = second compound 0.316 µM, first compound 0.1 µM
[15] = second compound 0.316 µM, first compound 0.316 µM
[16] = second compound 0.316 µM, first compound 1 µM
[17] = second compound 0.316 µM, first compound 3.16 µM
[18] = second compound 0.316 µM, first compound 10 µM
[19] = second compound 1 µM, first compound 0.0316 µM
[20] = second compound 1 µM, first compound 0.1 µM
[21] = second compound 1 µM, first compound 0.316 µM
[22] = second compound 1 µM, first compound 1 µM
[23] = second compound 1 µM, first compound 3.16 µM
[24] = second compound 1 µM, first compound 10 µM
[25] = second compound 3.16 µM, first compound 0.0316 µM
[26] = second compound 3.16 µM, first compound 0.1 µM
[27] = second compound 3.16 µM, first compound 0.316 µM
[28] = second compound 3.16 µM, first compound 1 µM
[29] = second compound 3.16 µM, first compound 3.16 µM
[30] = second compound 3.16 µM, first compound 10 µM
[31] = second compound 10 µM, first compound 0.0316 µM
[32] = second compound 10 µM, first compound 0.1 µM
[33] = second compound 10 µM, first compound 0.316 µM
[34] = second compound 10 µM, first compound 1 µM
[35] = second compound 10 µM, first compound 3.16 µM
[36] = second compound 10 µM, first compound 10 µM
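Note: spheroids exposed to compounds for 7 days before readout.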
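Throughout, for viability, T/C: 100% = DMSO vehicle wells with luminescence normalized to vehicle control.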

`CC(=O)O[C@H]1C(=O)[C@@]2(C)[C@H]([C@H](OC(=O)c3ccccc3)[C@]3(O)C[C@H](OC(=O)[C@H](O)[C@@H](NC(=O)c4ccccc4)c4ccccc4)C(C)=C1C3(C)C)[C@]1(OC(C)=O)CO[C@@H]1C[C@@H]2O` + CNC(=O)c1ccc(Nc2nc(OC3CCCC3)c3c(-c4ccc5nc(C)oc5c4)c[nH]c3n2)c(OC)c1 gave an IC50 (second compound 0.0316 µM) of under 31.6 nM, an IC50 (second compound 0.1 µM) of under 31.6 nM and an IC50 (second compound 0.316 µM) of under 31.6 nM. It also gave an IC50 (second compound 1 µM) of under 31.6 nM, an IC50 (second compound 3.16 µM) of under 31.6 nM and an IC50 (second compound 10 µM) of under 31.6 nM. It also gave a viability, T/C [1] of 24.3%, a viability, T/C [2] of 9.42% and a viability, T/C [3] of 9.43%. For the same compound, the viability, T/C [4] was 10%, the viability, T/C [5] was 13.3% and the viability, T/C [6] was 16.3%. For the same compound, the viability, T/C [7] was 37.8%, the viability, T/C [8] was 32.8% and the viability, T/C [9] was 35.9%. For the same compound, the viability, T/C [10] was 29.6%, the viability, T/C [11] was 43.8% and the viability, T/C [12] was 42.9%. It also gave a viability, T/C [13] of 31.6%, a viability, T/C [14] of 38% and a viability, T/C [15] of 38.3%. It also gave a viability, T/C [16] of 46.9%, a viability, T/C [17] of 51% and a viability, T/C [18] of 46.5%. It also gave a viability, T/C [19] of 22.9%, a viability, T/C [20] of 30.6% and a viability, T/C [21] of 30.7%. It also gave a viability, T/C [22] of 41.2%, a viability, T/C [23] of 41.4% and a viability, T/C [24] of 36.1%. For the same compound, the viability, T/C [25] was 24.4%, the viability, T/C [26] was 25.5% and the viability, T/C [27] was 25.1%. The viability, T/C [28] was 29.9%, the viability, T/C [29] was 26.6% and the viability, T/C [30] was 29%. It also gave a viability, T/C [31] of 20.4%, a viability, T/C [32] of 22.3% and a viability, T/C [33] of 29.6%. The viability, T/C [34] was 28.1%, the viability, T/C [35] was 30.5% and the viability, T/C [36] was 27.7%.
For `CCc1c2c(nc3ccc(O)cc13)-c1cc3c(c(=O)n1C2)COC(=O)[C@]3(O)CC` + CNC(=O)c1ccc(Nc2nc(OC3CCCC3)c3c(-c4ccc5nc(C)oc5c4)c[nH]c3n2)c(OC)c1, the IC50 (second compound 0.0316 µM) was 8.14 nM, the IC50 (second compound 0.1 µM) was under 3.16 nM and the IC50 (second compound 0.316 µM) was under 3.16 nM. It also gave an IC50 (second compound 1 µM) of under 3.16 nM, an IC50 (second compound 3.16 µM) of under 3.16 nM and an IC50 (second compound 10 µM) of under 3.16 nM. It also gave a viability, T/C (second compound 0.0316 µM, first compound 0.00316 µM) of 103%, a viability, T/C (second compound 0.0316 µM, first compound 0.01 µM) of 37.1% and a viability, T/C [1] of 16.6%. For the same compound, the viability, T/C [2] was 5.26%, the viability, T/C [3] was 3.13% and the viability, T/C [4] was 1.53%. It also gave a viability, T/C (second compound 0.1 µM, first compound 0.00316 µM) of 33.4%, a viability, T/C (second compound 0.1 µM, first compound 0.01 µM) of 17.9% and a viability, T/C [7] of 12.2%. It also gave a viability, T/C [8] of 3.99%, a viability, T/C [9] of 2.1% and a viability, T/C [10] of 1.61%. The viability, T/C (second compound 0.316 µM, first compound 0.00316 µM) was 18.9%, the viability, T/C (second compound 0.316 µM, first compound 0.01 µM) was 15.3% and the viability, T/C [13] was 8.99%. It also gave a viability, T/C [14] of 3.91%, a viability, T/C [15] of 1.28% and a viability, T/C [16] of 0.35%. The viability, T/C (second compound 1 µM, first compound 0.00316 µM) was 14.7%, the viability, T/C (second compound 1 µM, first compound 0.01 µM) was 13.8% and the viability, T/C [19] was 4.81%. The viability, T/C [20] was 4.56%, the viability, T/C [21] was 1.55% and the viability, T/C [22] was 0.71%. For the same compound, the viability, T/C (second compound 3.16 µM, first compound 0.00316 µM) was 15.7%, the viability, T/C (second compound 3.16 µM, first compound 0.01 µM) was 9.15% and the viability, T/C [25] was 5.68%. The viability, T/C [26] was 2.4%, the viability, T/C [27] was 1% and the viability, T/C [28] was 0.27%. It also gave a viability, T/C (second compound 10 µM, first compound 0.00316 µM) of 17.3%, a viability, T/C (second compound 10 µM, first compound 0.01 µM) of 12.9% and a viability, T/C [31] of 6.78%. It also gave a viability, T/C [32] of 3.12%, a viability, T/C [33] of 1.32% and a viability, T/C [34] of 2.51%.
`COc1ccc([C@@H](O)c2cc(-c3ncnc4cc(N5CCOCC5)ccc34)c(F)cc2Cl)nn1` + CNC(=O)c1ccc(Nc2nc(OC3CCCC3)c3c(-c4ccc5nc(C)oc5c4)c[nH]c3n2)c(OC)c1 showed an IC50 (second compound 0.0316 µM) of over 10000 nM, an IC50 (second compound 0.1 µM) of under 31.6 nM and an IC50 (second compound 0.316 µM) of under 31.6 nM. For the same compound, the IC50 (second compound 1 µM) was under 31.6 nM, the IC50 (second compound 3.16 µM) was under 31.6 nM and the IC50 (second compound 10 µM) was under 31.6 nM. The viability, T/C [1] was 87.3%, the viability, T/C [2] was 87.1% and the viability, T/C [3] was 98.5%. It also gave a viability, T/C [4] of 113%, a viability, T/C [5] of 115% and a viability, T/C [6] of 88.6%. For the same compound, the viability, T/C [7] was 47%, the viability, T/C [8] was 41.6% and the viability, T/C [9] was 36.9%. It also gave a viability, T/C [10] of 34.3%, a viability, T/C [11] of 34.6% and a viability, T/C [12] of 35.8%. It also gave a viability, T/C [13] of 26.4%, a viability, T/C [14] of 29.9% and a viability, T/C [15] of 27.9%. It also gave a viability, T/C [16] of 32%, a viability, T/C [17] of 24.5% and a viability, T/C [18] of 24.8%. It also gave a viability, T/C [19] of 23.8%, a viability, T/C [20] of 22.1% and a viability, T/C [21] of 19.9%. It also gave a viability, T/C [22] of 22.1%, a viability, T/C [23] of 23% and a viability, T/C [24] of 19.2%. For the same compound, the viability, T/C [25] was 15.7%, the viability, T/C [26] was 19.6% and the viability, T/C [27] was 17.4%. It also gave a viability, T/C [28] of 14.5%, a viability, T/C [29] of 14.9% and a viability, T/C [30] of 13.6%. The viability, T/C [31] was 19%, the viability, T/C [32] was 17.1% and the viability, T/C [33] was 14.4%. The viability, T/C [34] was 15.9%, the viability, T/C [35] was 15.2% and the viability, T/C [36] was 15.8%.
Work on `COc1cccc2c1C(=O)c1c(O)c3c(c(O)c1C2=O)CC(O)(C(=O)CO)CC3OC1CC(N)C(O)C(C)O1` (stereo not drawn) + CNC(=O)c1ccc(Nc2nc(OC3CCCC3)c3c(-c4ccc5nc(C)oc5c4)c[nH]c3n2)c(OC)c1 yielded an IC50 (second compound 0.0316 µM) of 115 nM, an IC50 (second compound 0.1 µM) of under 31.6 nM and an IC50 (second compound 0.316 µM) of under 31.6 nM. It also gave an IC50 (second compound 1 µM) of under 31.6 nM, an IC50 (second compound 3.16 µM) of under 31.6 nM and an IC50 (second compound 10 µM) of under 31.6 nM. It also gave a viability, T/C [1] of 96.7%, a viability, T/C [2] of 55.5% and a viability, T/C [3] of 10%. It also gave a viability, T/C [4] of 0.25%, a viability, T/C [5] of 0.24% and a viability, T/C [6] of 0.28%. For the same compound, the viability, T/C [7] was 44.4%, the viability, T/C [8] was 22.9% and the viability, T/C [9] was 7.66%. The viability, T/C [10] was 0.28%, the viability, T/C [11] was 0.22% and the viability, T/C [12] was 0.23%. The viability, T/C [13] was 21.8%, the viability, T/C [14] was 18.6% and the viability, T/C [15] was 5.6%. The viability, T/C [16] was 0.86%, the viability, T/C [17] was 0.19% and the viability, T/C [18] was 1.3%. For the same compound, the viability, T/C [19] was 15.9%, the viability, T/C [20] was 12.4% and the viability, T/C [21] was 3.59%. For the same compound, the viability, T/C [22] was 0.42%, the viability, T/C [23] was 0.14% and the viability, T/C [24] was 0.26%. The viability, T/C [25] was 12.7%, the viability, T/C [26] was 9.58% and the viability, T/C [27] was 2.15%. It also gave a viability, T/C [28] of 0.1%, a viability, T/C [29] of 0.69% and a viability, T/C [30] of 0.49%. The viability, T/C [31] was 13.7%, the viability, T/C [32] was 9.24% and the viability, T/C [33] was 3.57%. It also gave a viability, T/C [34] of 0.73%, a viability, T/C [35] of 1.86% and a viability, T/C [36] of 0.29%.
